Like-named read-outs stand apart in the source and are kept apart here.
Biological target: T1, FAAH (Rattus norvegicus, UniProt P97612)
T1 construct: Preparation of Rat Brain Membranes Preparations (FAAH Enzyme Solution); from tissue; host or cells: rat cerebrum (brain membrane preparation)
T1 sequence (P97612 1-579): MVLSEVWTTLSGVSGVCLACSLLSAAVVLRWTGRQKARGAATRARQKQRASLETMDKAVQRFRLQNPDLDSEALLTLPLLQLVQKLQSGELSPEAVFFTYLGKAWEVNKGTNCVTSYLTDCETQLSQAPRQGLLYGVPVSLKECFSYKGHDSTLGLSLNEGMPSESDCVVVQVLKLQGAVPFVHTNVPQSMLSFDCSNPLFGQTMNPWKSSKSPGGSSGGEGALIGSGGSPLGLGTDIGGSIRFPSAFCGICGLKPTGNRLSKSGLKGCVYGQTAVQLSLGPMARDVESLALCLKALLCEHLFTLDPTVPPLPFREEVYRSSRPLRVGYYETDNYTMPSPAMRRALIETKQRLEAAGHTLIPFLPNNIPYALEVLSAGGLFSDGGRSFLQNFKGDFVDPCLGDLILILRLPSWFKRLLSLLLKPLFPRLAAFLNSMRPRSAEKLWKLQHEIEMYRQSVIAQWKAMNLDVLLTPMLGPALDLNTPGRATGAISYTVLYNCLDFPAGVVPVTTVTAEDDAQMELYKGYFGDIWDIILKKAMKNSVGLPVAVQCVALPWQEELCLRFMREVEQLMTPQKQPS
Experiment: Determination of FAAH inhibitory activity in rat (rat brain membrane preparations, [3H]-anandamide hydrolysis)
Type: biochemical
Conditions: rat brain membrane preparations; for IC50: read-out: FAAH Inhibition IC50
Procedure, shortened: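 Rat cerebrum membranes (100 μg/mL protein) preincubated 10 min at 37 °C with compound (1% DMSO) in pH 7.6 Tris buffer with 1.5% BSA. Substrate 2 nM [3H]-anandamide plus 2 μM anandamide added for 10 min at 37 °C. [3H]-ethanolamine in the aqueous phase after chloroform/methanol extraction was scintillation counted; IC50 over 0.1 nM–1 μM.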

[1] = 100 nM test substance, read-out: FAAH Inhibition, Inhibition Rate at 100 nM

inhibition at 0.1 µM [1]	IC50 (test substance 0.1 nM to 1 μM)	inhibition at 0.1 µM (at 100 nM, read-out: FAAH Inhibition Inhibition Rate at 100 nM)	IC50	Compound
84%	28 nM	–	–	COCc1ncc2c(n1)n(C)c(=O)n2C(=O)N1CC(c2cccc(OC(F)(F)F)c2)C1 [compound 449]
99%	10 nM	–	–	Cc1cc(CCc2ncc3c(n2)n(C(=O)N(C)C)c(=O)n3C)ccc1F [compound 509]
85%	13 nM	–	–	CN(C)C(=O)n1c(=O)n(C)c2cnc(CCc3ccc(C4CC4)cc3)nc21 [compound 521]
110%	10 nM	–	–	Cn1c(=O)n(C(=O)N2CCC2)c2nc(CCc3ccc(C(F)F)cc3)ncc21 [Example 576, 9-(Azetidin-1-ylcarbonyl)-2-{2-[4-(difluoromethyl)phenyl]ethyl}-7-methyl-7,9-dihydro-8H-purine-8-one]
105%	11 nM	–	–	CCOc1ccc(C2CN(C(=O)n3c(=O)n(C)c4nc(CCOC)ncc43)C2)cc1 [compound 392]
100%	10 nM	–	–	CCOc1ccc(-c2ncc3c(n2)n(C)c(=O)n3C(=O)N2CCCC2)cc1 [compound 176]
103%	2 nM	–	–	COCc1ncc2c(n1)n(C)c(=O)n2C(=O)N1CC(COc2ccc(F)cc2)C1 [Example 492, 7-({3-[(4-Fluorophenoxy)methyl]azetidin-1-yl}carbonyl)-2-(methoxymethyl)-9-methyl-7,9-dihydro-8H-purine-8-one]
107%	11 nM	–	–	Cn1c(=O)n(C(=O)N2CCC2)c2nc(-c3cccc(C(F)(F)F)c3)ncc21 [compound 357]
46%	118 nM	–	–	COCc1ncc2c(n1)n(C)c(=O)n2C(=O)N1CC(Oc2ccccc2C)C1 [Example 478]
92%	46 nM	–	–	Cn1c(=O)n(C(=O)N2CCCC2)c2cnc(-c3ccc(OC(F)(F)F)c(F)c3)nc21 [compound 198]
99%	5 nM	–	–	CCOc1ccc(C2CN(C(=O)n3c(=O)n(C)c4nc(CCCOC)ncc43)C2)cc1 [Example 385]
99%	9 nM	–	–	Cn1c(=O)n(C(=O)N2CCCC2)c2cnc(-c3ccc(F)cc3F)nc21 [compound 188]
100%	10 nM	–	–	CN(C)C(=O)n1c(=O)n(C)c2cnc(CCc3cccc(OC(F)(F)F)c3)nc21 [compound 495]
102%	3 nM	–	–	COCc1ncc2c(n1)n(C)c(=O)n2C(=O)N1CC[C@H](Oc2ccc(F)cc2)C1 [Example 481]
93%	13 nM	–	–	CCN(C)C(=O)n1c(=O)n(C)c2cnc(-c3cccc(C(F)F)c3)nc21 [compound 344]
54%	74 nM	–	–	COCc1ncc2c(n1)n(C)c(=O)n2C(=O)N1CC(c2ccccc2C)C1 [compound 442]
88%	22 nM	–	–	CN(C)C(=O)n1c(=O)n(C)c2cnc(COc3cccc(C(F)(F)F)c3)nc21 [Example 422]
–	–	105%	8 nM	CN(C)C(=O)n1c(=O)n(C)c2cnc(CCOc3cccc(Cl)c3)nc21 [Example 641, 2-[2-(3-Chlorophenoxy)ethyl]-N,N,7-trimethyl-8-oxo-7,8-dihydro-9H-purine-9-carboxamide]
59%	86 nM	–	–	Cn1c(=O)n(C(=O)N2CCCC2)c2cnc(/C=C/c3ccc(C(F)(F)F)cc3)nc21 [compound 3]
84%	64 nM	–	–	CN(C)C(=O)n1c(=O)n(C)c2cnc(COc3cccc(Cl)c3)nc21 [Example 414]
83%	66 nM	–	–	COc1ccc(F)cc1-c1ncc2c(n1)n(C)c(=O)n2C(=O)N1CCCC1 [compound 195]

The next lines start with the compound.

Compound	inhibition at 0.1 µM [1]	IC50 (test substance 0.1 nM to 1 μM)	inhibition at 0.1 µM (at 100 nM, read-out: FAAH Inhibition Inhibition Rate at 100 nM)	IC50
Cn1c(=O)n(C(=O)N2CCCC2)c2nc(Cc3ccccc3F)ncc21 [Example 300, 2-(2-Fluorobenzyl)-7-methyl-9-(pyrrolidin-1-ylcarbonyl)-7,9-dihydro-8H-purine-8-one]	88%	40 nM	–	–
Cn1c(=O)n(C(=O)N2CCCCC2)c2cnc(-c3ccccc3)nc21 [Example 24, 9-Methyl-2-phenyl-7-(piperidin-1-ylcarbonyl)-7,9-dihydro-8H-purine-8-one]	97%	29 nM	–	–
Cc1ccc(/C=C/c2ncc3c(n2)n(C)c(=O)n3C(=O)N2CCCC2)cc1 [Example 9, 9-Methyl-2-[(E)-2-(4-methylphenyl)ethenyl]-7-(pyrrolidin-1-ylcarbonyl)-7,9-dihydro-8H-purine-8-one]	92%	47 nM	–	–
COc1cccc(-c2ncc3c(n2)n(C)c(=O)n3C(=O)N2CCN(c3ccccc3)CC2)c1 [Example 140, 2-(3-Methoxyphenyl)-9-methyl-7-[(4-phenylpiperazin-1-yl)carbonyl]-7,9-dihydro-8H-purine-8-one]	99%	7 nM	–	–
COc1cccc(-c2ncc3c(n2)n(C)c(=O)n3C(=O)N(C)Cc2ccccc2)c1 [Example 88, N-Benzyl-2-(3-methoxyphenyl)-N,9-dimethyl-8-oxo-8,9-dihydro-7H-purine-7-carboxamide]	93%	43 nM	–	–
Cn1c(=O)n(C(=O)N2CCCC2)c2cnc(-c3cccc(O)c3)nc21 [Example 311, 2-(3-hydroxyphenyl)-9-methyl-7-(pyrrolidin-1-ylcarbonyl)-7,9-dihydro-8H-purine-8-one]	88%	53 nM	–	–
Cn1c(=O)n(C(=O)N2CCN(c3ccc(C(F)(F)F)cc3)CC2)c2cnc(-c3ccccc3)nc21 [Example 134, 9-Methyl-2-phenyl-7-({4-[4-(trifluoromethyl)phenyl]piperazin-1-yl}carbonyl)-7,9-dihydro-8H-purine-8-one]	96%	7 nM	–	–
Cn1c(=O)n(C(=O)N2CCCC2)c2cnc(/C=C/c3ccc(Cl)cc3)nc21 [Example 8, 2-[(E)-2-(4-Chlorophenyl)ethenyl]-9-methyl-7-(pyrrolidin-1-ylcarbonyl)-7,9-dihydro-8H-purine-8-one]	87%	57 nM	–	–
Cn1c(=O)n(C(=O)N2CCCC2)c2nc(CCc3ccc(F)cc3)ncc21 [Example 314, 2-[2-(4-Fluorophenyl)ethyl]-7-methyl-9-(pyrrolidin-1-ylcarbonyl)-7,9-dihydro-8H-purine-8-one]	100%	37 nM	–	–
Cn1c(=O)n(C(=O)N2CCCC2)c2cnc(-c3ccc(Cl)cc3)nc21 [Example 18]	99%	7 nM	–	–
COc1ccc(Cc2ncc3c(n2)n(C(=O)N2CCCC2)c(=O)n3C)cc1 [Example 287, 2-(4-Methoxybenzyl)-7-methyl-9-(pyrrolidin-1-ylcarbonyl)-7,9-dihydro-8H-purine-8-one]	96%	29 nM	–	–
CCN(C)C(=O)n1c(=O)n(C)c2nc(C3CCCCC3)ncc21 [Example 162, 2-Cyclohexyl-N-ethyl-N,9-dimethyl-8-oxo-8,9-dihydro-7H-purine-7-carboxamide]	72%	38 nM	–	–
CN(CCc1ccc(Cl)cc1)C(=O)n1c(=O)n(C)c2nc(-c3ccnc(F)c3)ncc21 [Example 222, N-[2-(4-Chlorophenyl)ethyl]-2-(2-fluoropyridin-4-yl)-N,9-dimethyl-8-oxo-8,9-dihydro-7H-purine-7-carboxamide]	99%	< 1 nM	–	–
Cc1ccc(-c2ncc3c(n2)n(C(=O)N2CCCC2)c(=O)n3C)cc1 [Example 229, 7-Methyl-2-(4-methylphenyl)-9-(pyrrolidin-1-ylcarbonyl)-7,9-dihydro-8H-purine-8-one]	90%	53 nM	–	–
Cn1c(=O)n(C(=O)N2CCCC2)c2cnc(-c3ccccc3)nc21 [Example 16, 9-Methyl-2-phenyl-7-(pyrrolidin-1-ylcarbonyl)-7,9-dihydro-8H-purine-8-one]	100%	7 nM	–	–
O=C(N1CCCC1)n1c(=O)n(CCO)c2nc(-c3ccccc3)ncc21 [Example 302, 9-(2-hydroxyethyl)-2-phenyl-7-(pyrrolidin-1-ylcarbonyl)-7,9-dihydro-8H-purine-8-one]	94%	46 nM	–	–
CCN(C)C(=O)n1c(=O)n(C)c2nc(-c3ccnc(F)c3)ncc21 [Example 221, N-Ethyl-2-(2-fluoropyridin-4-yl)-N,9-dimethyl-8-oxo-8,9-dihydro-7H-purine-7-carboxamide]	100%	4 nM	–	–
Cn1c(=O)n(C(=O)N2CCCC2)c2cnc(-c3ccc(F)nc3)nc21 [Example 207, 2-(6-Fluoropyridine-3-yl)-9-methyl-7-(pyrrolidin-1-ylcarbonyl)-7,9-dihydro-8H-purine-8-one]	99%	6 nM	–	–
Cn1c(=O)n(C(=O)N2CCCC2)c2nc(-c3cccnc3)ncc21 [Example 248]	33%	> 100 nM	–	–

From US8735406B2, “8-oxodihydropurine derivative” (Dainippon Sumitomo Pharma Co., Ltd., priority 2009, dated 2014)
